Assay results from patent US20200038412A1, “METHODS OF TREATING ALZHEIMER'S DISEASE USING AMINOSTEROL COMPOSITIONS” (Enterin, Inc., priority 2018, published 2020).
Where a name gives a salt, the structure may show the parent alone.

Tests used:
[1] = single and repeat intravenous administration, alone or in combination with other agents; cited from earlier work
[2] = test system: IPANs (intrinsic primary afferent neuron); settings: perfusion through lumen of isolated bowel segment; cited from earlier work
[3] = systemic administration, mice; into the duodenum through the biliary tract; cited from earlier work
C. elegans model of PD = settings: C. elegans model; cited from earlier work
[4] = test system: patients with PD and constipation; experiment: Phase 2 trial Stage 2: bowel function under daily oral dosing (escalation, fixed dose, wash-out); type: in vivo, human; settings: patients with baseline ≥1 CSBM/week
Experimental: Following successful screening, all subjects underwent a 14-day run-in period where the degree of constipation was assessed through a validated daily log (Zinsmeister et al. 2013) establishing baseline CSBMs/week. Subjects with an average of <3 CSBMs/week proceeded to dosing.
In Stage 2, 34 patients were evaluated.
The primary efficacy outcome variable was whether or not a subject was a “success” or “failure”. This is an endpoint based on subject diary entries for the “fixed dose” period prior to the endpoint assessment defined as average complete stool frequency increase by 1 or more over baseline, or 3 or more complete spontaneous stools/week. The subject was deemed a “success” if s/he met one or more of the criteria listed above, otherwise the subject was deemed a “failure”. The primary analysis was based on all subjects with a baseline assessment and an assessment at the end of the “fixed-dose” period and was a comparison of the proportion of successes with 0.10 (the null hypothesis corresponding to no treatment effect).

mouse models of PD = settings: cited from earlier work
[5] = Pharmacokinetics of orally administered squalamine (ENT-01) in Stage 1; type: in vivo, human; settings: oral dosing
Experimental: PK data were collected on the 10 patients enrolled in Stage 1 and 10 patients enrolled in Stage 2 to determine the extent of systemic absorption. In Stage 1, PK data were obtained at each visit, pre-medication, at 1, 2, 4, 8 and 24 hours (Table 10). In Stage 2, PK was measured on days 1 and 6 of the randomization period pre-medication, at 1, 2, 4 and 8 hours (Table 11).
The mean Cmax, Tmax and T1/2 and AUC of the squalamine ion following squalamine (ENT-01) oral dosing for Stage 1 patients. The PK analyses are only approximate, as the lower limit of the validated concentration range was 10 ng/ml; most of the measured concentrations fell below that value. The mean Cmax, Tmax and T1/2 and AUC of the squalamine ion following squalamine (ENT-01) oral dosing for Stage 2 patients. The PK analyses are only approximate, as the lower limit of the validated concentration range was 0.5 ng/ml.

Compound: CC(C)[C@@H](CC[C@@H](C)[C@H]1CC[C@H]2[C@@H]3[C@H](O)C[C@H]4C[C@@H](NCCCNCCCCN)CC[C@]4(C)[C@H]3CC[C@]12C)OS(=O)(=O)O [squalamine dilactate salt]
- well tolerated intravenous dose [1]: at least 300 mg/m^2

Compound: CC(C)[C@@H](CC[C@@H](C)[C@H]1CC[C@H]2[C@@H]3[C@H](O)C[C@H]4C[C@@H](NCCCNCCCCN)CC[C@]4(C)[C@H]3CC[C@]12C)OS(=O)(=O)O [squalamine]
- effect on IPANs [2]: excitation of IPANs
- clearance and excretion [3]: cleared by the liver and excreted as the intact molecule
- muscle paralysis (C. elegans model of PD): complete reversal of muscle paralysis
- mean dose required for a bowel response (prokinetic dose) [4]: 120 mg
- gastro-intestinal motility (mouse models of PD; orally administered, mice with constipation due to overexpression of human αS (West et al)): stimulates gastro-intestinal motility
- gastrointestinal dysmotility (mouse models of PD; several mouse models of PD): reverse gastrointestinal dysmotility
- systemic absorption [5]: not significantly absorbed into the systemic circulation
